Test results as given in article PMC11249646, “Small-Molecule Disruptors of the Interaction between Calcium- and Integrin-Binding Protein 1 and Integrin αIIbβ3 as Novel Antiplatelet Agents” (ACS Pharmacology & Translational Science, 2024).
Values after ≈ are worked out from the molar mass of the structure shown. Like-named read-outs stand apart in the source and are kept apart here.

Legend:
[1] = target: T1, GST-CIB1 : F-scrambled peptide (Homo sapiens, UniProt Q99828); experiment: FP scrambled-peptide counter screen, 1536-well format; format: binding; conditions: for COUNTERSCREEN Confirm?: YES/NO call; for COUNTERSCREEN Curve Class / Curve Class (counterscreen): qHTS curve class; for Curve Class (counterscreen): negative sign = inhibitory curve
T1 construct: made in house; host or cells: BL-21 plus RIL cells (E. coli)
T1 sequence (Q99828 1-191): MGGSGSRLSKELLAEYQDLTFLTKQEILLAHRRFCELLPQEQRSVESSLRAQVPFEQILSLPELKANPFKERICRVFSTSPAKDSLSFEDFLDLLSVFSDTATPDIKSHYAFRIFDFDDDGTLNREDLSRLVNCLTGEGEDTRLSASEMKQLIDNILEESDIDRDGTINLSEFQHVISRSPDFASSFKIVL

CIB1 and αIIb peptide = target: T2, CIB1 and αIIb peptide (Homo sapiens, UniProt Q99828); experiment: Intrinsic tryptophan fluorescence (ITF) assay
T2 sequence (Q99828 1-191): T1 sequence (Q99828 1-191)

[2] = target: T3, CIB1 and αIIb interaction (CIB1-GST : F-αIIb peptide) (Homo sapiens, UniProt Q99828); experiment: FP assay, 1536-well qHTS format (primary and confirmatory screen); format: binding; conditions: for CONFIRMATORY SCREEN Confirm?: YES/NO call; for CONFIRMATORY SCREEN Curve Class / Curve Class (confirmatory screen): qHTS curve class; for CONFIRMATORY SCREEN Curve Class / Curve Class / Curve Class (confirmatory screen): negative sign = inhibitory curve; for CONFIRMATORY SCREEN Efficacy (%) / Efficacy (%): negative = inhibition; for Confirm? (confirmatory screen): YES/NO
T3 construct: made in house; host or cells: BL-21 plus RIL cells (E. coli)
T3 sequence (Q99828 1-191): T1 sequence (Q99828 1-191)

[3] = target: T4, CIB1 and αIIb interaction (GST-CIB1 : F-αIIb peptide) (Homo sapiens, UniProt Q99828); experiment: FP assay, 384-well format (screen); format: binding; design: 384-well SCREEN Efficacy (%): concentration or dose not given beside the values; conditions: for 384-well SCREEN Confirm?: YES/NO
T4 construct: made in house; host or cells: BL-21 plus RIL cells (E. coli)
T4 sequence (Q99828 1-191): T1 sequence (Q99828 1-191)

[4] = target: T5, GST-CIB1 : F-αIIb peptide (Homo sapiens, UniProt Q99828); experiment: FP assay in the presence of glutathione (GSH), thiol reactivity; format: binding; conditions: for GSH/CIB1 IC50 ratio: ratio of GSH (+) IC50 to GSH (-) IC50; for GSH Assay Result: thiol reactivity call: No change / Active
T5 construct: made in house; host or cells: BL-21 plus RIL cells (E. coli)
T5 sequence (Q99828 1-191): T1 sequence (Q99828 1-191)

[5] = target: T6, GST-CIB1:F-αIIb interaction (Homo sapiens, UniProt Q99828); experiment: Gel-based (in-gel) binding assay; conditions: 1 μM GST-CIB1, 400 nM F-αIIb; 60 μM, 1:2, 4-points
T6 construct: made in house; host or cells: BL-21 plus RIL cells (E. coli)
T6 sequence (Q99828 1-191): T1 sequence (Q99828 1-191)

[6] = target: T1, GST-CIB1 : F-scrambled peptide; experiment: FP scrambled-peptide counter screen, 384-well format; format: binding; conditions: F-scrambled peptide; for 384-well COUNTERSCREEN Confirm?: *: Curve in opposite direction; for IC50: read-out: 384-well COUNTERSCREEN IC50
washed human platelets = experiment: Human platelet aggregation assay (thrombin-induced); format: cell-based; conditions: for inhibition at 10 µM: Homo sapiens, Platelet, single concentration of 10 μM (n = 3), thrombin; for Thrombin Assay 10 µM (%): platelet aggregation inhibition at 10 µM
Description: A classical challenge in target-based drug discovery is moving from biochemical to cellular assay and the essential step of determining if the compounds of interest can perform in a cellular context. After characterization of the compounds in a series of biochemical assay formats, our next step was to assess their activity in a cellular environment. Our previous studies have shown that the interaction of the cytoplasmic domain of integrin αIIbβ3, a key regulator of platelet aggregation, with CIB1, is involved in downstream signaling in platelet activation and aggregation. We sought to determine whether our candidate compounds were inhibiting this interaction by evaluating them for platelet function in a human platelet aggregation assay. We prepared platelet-rich plasma (PRP) and washed the platelets as previously described[44] and then performed a platelet aggregation assay using the washed platelet suspensions (2 × 10^8/platelets/mL) followed by the recording of aggregation traces (see Materials and Methods Section). To induce platelet aggregation, 0.03 U/mL of thrombin, a physiological agonist of platelet activation, was used.
Figure 6 Effect of compounds on human platelet activation. Representative platelet aggregation tracings of washed human platelet suspensions pretreated for 30 min at 37 °C with vehicle (DMSO) or compounds at indicated concentrations followed by activation with thrombin (0.03–0.1 U/mL). Panel (A): NCGC00071855. Panel (B–D): NCGC00351170. Panel (E): CD62P exposure was in the presence of NCGC00351170. Data represents mean ± SEM, n = 4 individual experiments; ns = non significant *P < 0.05, ***P < 0.001, ****P < 0.0001.
Whole blood was drawn by venipuncture from healthy adult volunteers (of both gender and race) with informed consent. Approval was obtained from the institutional review boards of Thomas Jefferson University, according to the Declaration of Helsinki. Blood was collected in acidified citrate dextrose as an anticoagulant. Platelet-rich plasma (PRP) and washed platelets were prepared, as previously described.[44] Platelet aggregation was performed using washed platelet suspensions containing 2 × 10^8 platelets/mL using a Chrono-Log Lumi-Aggregometer (Chrono-Log), as described previously.[11] Aggregation traces were recorded by using Aggrolink software (Chrono-Log). Thrombin-induced P-selectin (CD62P) exposure was performed using Accuri C6 flowcytometer (BD Bioscience) as described previously.[11]
Figure S9: Effect of compounds on human platelet activation. Representative platelet aggregation
tracings of washed human platelet suspensions treated with vehicle (DMSO) or indicated
compounds at 10 μM for 30 minutes at 37 °C followed by activation with thrombin (0.03U/mL).

[7] = In vitro ADME: solubility; format: physicochemical; conditions: read-out: Solubility
[8] = In vitro ADME: PAMPA permeability
[9] = scrambled-peptide counterscreen
[10] = scrambled-peptide counterscreen, read-out: COUNTERSCREEN IC50
[11] = confirmatory screen, read-out: CONFIRMATORY SCREEN IC50
[12] = qHTS primary screen hits, Table S2
[13] = qHTS primary screen hits, Table S2, read-out: IC50
[14] = F-αIIb peptide, read-out: 384-well SCREEN IC50
[15] = FP assay in the presence of glutathione (GSH +), read-out: GSH (+) Assay IC50
[16] = FP assay without glutathione (GSH -), read-out: GSH (-) Assay IC50
[17] = counterscreen, read-out: IC50 [μM] (counterscreen)
[18] = confirmatory screen, read-out: IC50 [μM] (confirmatory screen)
[19] = 384-well FP assay, Table 1, read-out: FP assay IC50
[20] = qHTS FP screen hits, Table S2, read-out: IC50

Structure (SMILES) | COUNTERSCREEN Efficacy (%) [1, 9] | COUNTERSCREEN Confirm? [1, 9] | COUNTERSCREEN Curve Class [1, 9] | CONFIRMATORY SCREEN Confirm? ([2]; confirmatory screen) | CONFIRMATORY SCREEN Curve Class ([2]; confirmatory screen) | CONFIRMATORY SCREEN Efficacy (%) ([2]; confirmatory screen) | IC50 [2, 11] | 384-well SCREEN Efficacy (%) ([3]; F-αIIb peptide) | 384-well SCREEN Confirm? ([3]; F-αIIb peptide) | IC50 [3, 14] | IC50 [4, 15] | IC50 [4, 16] | GSH/CIB1 IC50 ratio [4] | GSH Assay Result [4] | Active in Gel Assay? [5] | 384-well COUNTERSCREEN Efficacy (%) [6] | 384-well COUNTERSCREEN Confirm? [6] | IC50 [6] | solubility [7] | Papp [8] | also measured
Oc1ccc2ccccc2c1SSc1c(O)ccc2ccccc12 [NCGC00186047-02, IPA-3, reference compound] | -34% | YES | -1.2 | YES | -1.4 | -74% | 2.8 µM | 76% | YES | 1.3 µM | 0.326 µM | 0.232 µM | 1.4 | No change | YES | 23% | YES | > 120 µM |  |  | IC50 [1, 10]: 31.6 µM; IC50 (CIB1 and αIIb peptide): 16.6 µM; Efficacy (%) [2, 12]: -21%; Curve Class [2, 12]: -1.4; IC50 [2, 13]: 10.3 µM; shift in potency in the presence of GSH ([4]; with vs without 10 μM reduced GSH): no shift
O=C(c1ccccc1)c1no[n+]([O-])c1C(=O)c1ccccc1 [NCGC00351168-02] |  |  |  |  |  |  |  |  |  |  |  |  |  |  |  |  |  |  | 26 µg/mL (≈ 88.4 µM) | 2 ×10⁻⁶ cm/s | Efficacy (%) (counterscreen) ([1]; counterscreen): -34%; Curve Class (counterscreen) ([1]; counterscreen): -1.4; IC50 [1, 17]: 25.1 µM; inhibition at 10 µM (washed human platelets): 97%; Thrombin Assay 10 µM (%) (washed human platelets): 97%; Efficacy (%) (confirmatory screen) ([2]; confirmatory screen): -54%; Confirm? (confirmatory screen) ([2]; confirmatory screen): YES; Curve Class (confirmatory screen) ([2]; confirmatory screen): -2.2; IC50 [2, 18]: 31.6 µM; Efficacy (%) [2, 12]: -49%; Curve Class ([2]; qHTS primary screen hits, Table S2, several classes where COUNT > 1): -1.2; IC50 [2, 13]: 25.1 µM; IC50 [3, 19]: 7.85 µM
COc1ccc(C(=O)c2no[n+]([O-])c2C(=O)c2ccc(OC)cc2)cc1.O=C(O)C(F)(F)F [NCGC00064079-03] |  |  |  |  |  |  |  |  |  |  |  |  |  |  |  |  |  |  | 9 µg/mL | 285 ×10⁻⁶ cm/s | Efficacy (%) (counterscreen) ([1]; counterscreen): -30%; Curve Class (counterscreen) ([1]; counterscreen): -1.4; IC50 [1, 17]: 3.2 µM; inhibition at 10 µM (washed human platelets): 99%; Thrombin Assay 10 µM (%) (washed human platelets): 99%; Efficacy (%) (confirmatory screen) ([2]; confirmatory screen): -37%; Confirm? (confirmatory screen) ([2]; confirmatory screen): YES; Curve Class (confirmatory screen) ([2]; confirmatory screen): -1.4; IC50 [2, 18]: 6.3 µM; Efficacy (%) ([2]; qHTS FP screen hits, Table S2): -27%; IC50 [2, 20]: 8.9 µM; IC50 [3, 19]: 4.53 µM
O=C(c1cccs1)c1no[n+]([O-])c1C(=O)c1cccs1 [NCGC00071855-04] | -36% | YES | -1.4 | YES | -1.4 | -40% | 5.6 µM | 76% | YES | 7.9 µM | 3.1 µM | 6.3 µM | 0.5 | No change | YES | 50% | YES | 31.6 µM | 9 µg/mL (≈ 29.4 µM) | 156 ×10⁻⁶ cm/s | IC50 [1, 10]: 25.1 µM; Platelet Aggregation Result (washed human platelets; 10 μM compound): Active; IC50 (CIB1 and αIIb peptide): 53.1 µM
COc1ccc(CNC(=O)c2nc(S(=O)(=O)Cc3ccccc3)ncc2Cl)cc1.O=C(O)C(F)(F)F [NCGC00117170-03] | -18% | YES | 4 | YES | -1.4 | -29% | 12.6 µM | 56% | YES | 7.1 µM | 4.1 µM | 3.2 µM | 1.3 | No change | YES | 17% | YES | > 120 µM |  |  | ITF IC50 (CIB1 and αIIb peptide): inactive; Efficacy (%) ([2]; qHTS FP screen hits, Table S2): -38%; Curve Class ([2]; qHTS FP screen hits, Table S2, one class per curve where COUNT > 1): -1.2; IC50 [2, 20]: 2 µM
